# Results published in patent publication US9446039B2, “Aminoheteroaryl compounds as MTH1 inhibitors” (CEMM—FORSCHUNGSZENTRUM FÜR MOLEKULARE MEDIZIN GMBH, priority 2012, dated 2016).
# Entries after “also recorded” stand apart in the source; their conditions may differ.
# Legend:
# [1] = system: SW480 cells; test: Colony formation assay using SW480 cells; type: cell-based, human; settings: K-Ras-mutated SW480 colon carcinoma
# Protocol: Colony Formation Assay Using SW480 Cells. One day before treatment, 10^4 cells were seeded per well in 6-well plates and incubated for 24 h. The next day DMSO (equal to highest amount of compound dilution, maximum 0.2%) or compounds in increasing concentrations were added and cells incubated at 37° C., 5% CO2, for 7-10 days. After washing with PBS (Gibco), cells were fixed with ice-cold methanol, stained with crystal violet solution (0.5% in 25% methanol) and left to dry overnight. For quantification of results, UV absorbance of crystal violet was determined at 595 nm after solubilisation by 70% ethanol. Data were analysed using non-linear regression analysis utilizing the GraphPad Prism software.
# [2] = system: PANC1 pancreatic cancer cells; test: Colony formation assay using PANC1 cells; type: cell-based, human; settings: K-Ras mutated PANC1
# [3] = system: BJ skin fibroblasts; test: Colony formation assay with untransformed BJ skin fibroblasts; type: cell-based, human; settings: 10 days incubation
# [4] = system: isogenic BJ fibroblast cell lines; test: Colony formation assays in isogenic BJ fibroblast cell lines (anti-cancer specificity); type: cell-based; settings: hTERT+SV40T, hTERT+SV40T+KRAS V12
# Description: FIG. 28: Anti-cancer specificity. […] As indicated, the investigated cell line panel comprised non-transformed (“wildtype”) cells, cells immortalized with telomerase (hTERT), cells transformed with hTERT and SV40 Large T antigen (SV40T), and cells transformed with hTERT, SV40T, and the KRAS mutant V12.
# The investigated cell line panel comprised non-transformed (“wildtype”) cells, cells immortalized with telomerase (hTERT), cells transformed with hTERT and SV40 Large T antigen (SV40T), and cells transformed with hTERT, SV40T, and the KRAS mutant V12 (FIG. 28).
# [5] = system: SW480 cells; test: Alkaline comet assay (DNA single strand breaks) in SW480 cells; type: cell-based, human; settings: 6 days treatment, alkali conditions
# Protocol: Comet Assay. Cells were treated with compounds for 6 days, upon which DNA single-strand breaks were assayed using the comet assay under alkali conditions. […] Cells were washed twice with PBS, harvested using a rubber scraper, pelleted by centrifugation, resuspended in PBS and mixed with 1% low-gelling-temperature agarose (Sigma type VII) that was maintained at 37° C. The mixture of cells and agarose was layered onto frosted glass slides pre-coated with 0.5% agarose and slides were placed on ice to gel. Slides were maintained in the dark for all subsequent steps. […] After electrophoresis for 25 minutes at 25 volts, slides were placed at 4° C. over-night, in the dark. The following day, slides were neutralized with 0.4 M Tris-HCl pH 7.0 for 1 hour and stained with SYBR Gold (Invitrogen, diluted 1:10,000 in distilled water) for 30 minutes. Comet tail moments (defined as the average distance migrated by the DNA multiplied by the fraction of DNA in the comet tail) were scored using the CellProfiler cell image analysis software.
# [6] = system: SW480 cells; test: Indirect immunofluorescence for 53BP1 foci in SW480 cells; type: cell-based, human; settings: 6 days treatment
# Protocol: Indirect Immunofluorescence. Cells were treated with compounds for 6 days, following which they were adhered to glass coverslips, washed with PBS and then fixed with 3% paraformaldehyde in PBS for 20 minutes. Fixed cells were rinsed with PBS and permebealised with 0.5% Triton-X-100 for 5 minutes. PBS washed slides were incubated for 1 hour with 10% FCS and 0.1% Triton-X-100 in PBS following which cells were stained with an anti-53BP1 monoclonal antibody (H-300, Santa Cruz, diluted 1:600), in 10% FCS and 0.1% Triton-X-100 in PBS. […] After a PBS wash, DNA was counterstained with DAPI (Sigma-Aldrich) for 10 minutes and the coverslips were mounted in Fluorescent Mounting Medium (Dako). Images were analysed with a Zeiss fluorescent microscope at 63 times magnification with supporting software.
# [7] = system: SW480 cells; test: ATM phosphorylation in SW480 cells; type: cell-based, human
# [8] = system: SW480 cells; test: SW480 mouse xenograft study; type: in vivo, SCID mice; settings: 25 mg/kg s.c. once daily, 35 days
# Protocol: (§1) Xenograft Study. SCID mice (female, 5-6 weeks, Scanbur, Germany) were s.c. injected with 1×10^6 SW480 cells together with a matrix gel (1:1) in the sacral area. Treatment was initiated one day after cell inoculation. Vehicle or MTH1 inhibitor was administered subcutaneously once daily at 25 mg/kg for 35 days. MTH1 inhibitor was diluted in 1% DMSO, 10% ethanol, 10% cremaphore, 10% Tween 80, 69% PBS. Tumour size was measured twice weekly and body weight once weekly. At termination, a gross postmortem inspection was performed; blood was collected for haematological parameters and ASAT, ALAT, creatinine measurements and tumours collected in paraformaldehyde (4%) and later paraffin inbedded for immunohistology analysis. All experiments involving animals followed protocols approved by Stockholms Norra djurfOrsoksetiska namnd (laboratory animal ethical committee Stockholm). All animals were acclimatised for one week, and had free access to water and food during the experiment. Animals were under a 12-hour lightcycle, and temperature and humidity according to laboratory animal guidelines and regulations.
# [9] = Tolerability in the xenograft study: hematology, liver/heart/kidney parameters, body weight; type: in vivo, SCID mice
# Protocol: as §1, with “MTH1 inhibitor was diluted in 1% DMSO, 10% ethanol, 10% cremaphore, 10% Tween 80, 69% PBS.” left out
# [10] = system: SW480 colon carcinoma cells lysate proteins; type: binding, human; settings: immobilized aminopropyl derivative of (S)-crizotinib
# [11] = system: MCF-7; settings: 10 μM, versus DMSO-treated cells
# [12] = system: MDA-MB-231; settings: 10 μM, versus DMSO-treated cells; KRAS G13D
# [13] = system: BJ fibroblasts; test: 8-oxo-guanine staining in BJ cells; settings: fixed 72 h later
# [14] = system: HCT116 colon carcinoma cells; test: HCT116 isogenic cell line system (p53/p21/MLH1 status); settings: HCT116 isogenic lines
# [15] = 25 mg/kg s.c. 35 days, EDTA plasma, mean ± SD
# [16] = 25 mg/kg s.c. 35 days, mean ± SD
smiles,measurement,setting,value
"C[C@H](Oc1cc(-c2cnn(C3CCNCC3)c2)cnc1N)c1c(Cl)ccc(F)c1Cl [(S)-enantiomer of crizotinib, (S)-3-[1-(2,6-dichloro-3-fluoro-phenyl)-ethoxy]-5-(1-piperidin-4-yl-1H-pyrazol-4-yl)-pyridin-2-ylamine]",colony formation / growth of SW480 cells,[1],efficiently inhibited colony formation; also recorded: considerably more effective
same,colony formation of PANC1 cells,[2],efficiently inhibited colony formation
same,toxicity on non-transformed BJ skin fibroblasts (colony formation),[3],does not exhibit any increased unspecific cytotoxicity
same,toxicity to transformed versus wildtype / hTERT-immortalized BJ cells,[4],more toxic to transformed cells than to wildtype cells
same,tail moment in the comet assay,[5],yielded a significant tail moment
same,number of 53BP1 foci,[6],increase the number of 53BP1 foci
same,ATM phosphorylation,[7],increase of ATM phosphorylation
same,reduction in tumour volume,[8],more than 50%
same,P-ALAT,[9]; [15],0.26 ± 0.07 mCat/l
same,p-ASAT,[9]; [15],1.10 ± 0.32 mCat/l
same,p-Creatinine,[9]; [15],18.6 ± 4.24 µM
same,HBG,[9]; [16],134 ± 6.25 g/L
same,Lymphocytes,[9]; [16],0.23 ± 0.06 10^9/l
same,MCH,[9]; [16],14.07 ± 0.30 pg
same,MCHC,[9]; [16],327 ± 4.90 g/L
same,MCV,[9]; [16],43.02 ± 1.07 fL
same,Monocytes,[9]; [16],0.16 ± 0.11 10^9/l
same,Neutrophils,[9]; [16],1.50 ± 0.51 10^9/l
same,RBC,[9]; [16],9.51 ± 0.37 10^12/l
same,Thrombocytes,[9]; [16],828 ± 160 10^9/l
same,WBC,[9]; [16],1.90 ± 0.64 10^9/l
same,tolerability,"[9]; 25 mg/kg s.c. once daily, 35 days",well-tolerated
same,change in haematological parameters,"[9]; 25 mg/kg s.c., 35 days, versus vehicle",no significant change
same,main cellular target in SW480 cells,[10],MTH1 (gene name NUDT1) is the main target
same,growth of MCF-7 in colony formation assay,[11],significantly decreased the growth
same,growth of MDA-MB-231 in colony formation assay,[12],significantly decreased the growth
same,staining of anti-8-oxo-guanine antibody,[13],increased staining
same,effect of loss of p21 on sensitivity of HCT116 cells,[14],seems to increase the sensitivity
same,effect of p53 status and functional MLH1 on activity in HCT116 cells,[14],do not affect the activity
